Like-named read-outs stand apart in the source and are kept apart here. Blank lines part the entries; values can stand above or below the molecule they belong to.
Key:
NodST [1] = target: T1, NodST (Sinorhizobium meliloti, UniProt P06236); assay: Continuous spectrophotometric coupled-enzyme assay of NodST with βAST-IV PAPS regeneration; type: biochemical, Rhizobium melioti
T1 sequence (P06236 1-247): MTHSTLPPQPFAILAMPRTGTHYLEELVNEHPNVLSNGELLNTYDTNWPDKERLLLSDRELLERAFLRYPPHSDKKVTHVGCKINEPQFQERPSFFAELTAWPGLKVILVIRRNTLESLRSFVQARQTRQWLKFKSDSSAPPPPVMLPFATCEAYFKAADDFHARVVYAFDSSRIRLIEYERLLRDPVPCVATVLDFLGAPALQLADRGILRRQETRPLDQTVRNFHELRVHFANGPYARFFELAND
Procedure: 100 mM bis-tris propane-HCl, pH 7.0, 5 mM 2-mercaptoethanol, 20 μM PAPS, 2 mM p-nitrophenyl sulfate, 3.0 mU NodST, 6.4 mU β-AST IV, and substrate are combined to a total volume of 500 μL. Because commercial PAPS contains significant amounts of PAP, the assay solution is incubated for 30 minutes at 20° C. prior to addition of substrate. The evolution of p-nitrophenol is monitored at 400 nm for 10 minutes.
All reactions were run in a total volume of 500 μL at 25° C. […] The amount of NodST added to each series of acceptor concentrations is varied over 1.2, 1.8, 3.0, and 4.2 mU. Because commercial PAPS contains significant amounts of PAP, the assay solution is incubated for 30 minutes at 20° C. prior to addition of substrate. The evolution of p-nitrophenol is monitored at 400 nm for 10 minutes.
3.0 mU of NodST was used in each reaction. The Km for each series of PAP concentrations was calculated and the values were compared.

NodST [2] = target: T1, NodST; settings: non-coupled radioisotope thin-layer chromatography assay, 100 μM PAPS; read-out: published Km of acceptor for NodST; cited from earlier work
[3] = tested on: hydroxysteroid sulfotransferase; settings: Marcus et al. 1980, cited from earlier work
βAST-IV = target: T2, βAST-IV (Rattus norvegicus, UniProt P17988); assay: Reverse-physiological reaction of βAST-IV (PAPS from PAP and p-nitrophenyl sulfate); type: biochemical; settings: 10 mM p-nitrophenyl sulfate, pH 7.0, 25° C.
T2 construct: made in house; host or cells: E. coli BL21(DE3)
Procedure: All capillary zone electrophoresis (CZE) was run in 0.23 M borate in running buffer at pH 7.8. The column was pre-washed with H2 O (1 min), 1 N NaOH (1 min), and running buffer (2 min). The sample was pressure injected at 20 psi sec and electrophoresis was run with 20.0 kV (- to +) at 20° C. with detection at 260 nm. CZE of 1 mM standards PAPS, PAP, and 3'-adenosine monophosphate (3'-AMP) were run to determine retention times. The reverse-physiological reaction assay mixture, a 500 μL solution containing 50 mM bis-tris propane-HCl buffer at pH 7.0, 1 mM 2-mercaptoethanol, 10 mM p-nitrophenyl sulfate, and 1 mM PAP at 25° C., was subjected to CZE prior to addition of enzyme (t=0). 5 mU βAST-IV was added and CZE was repeated 30 minutes after initiation. The reaction was then diluted 100-fold and CZE was run again. A 2.0 μL internal standard of 10 mM PAPS was added, and CZE was repeated.
βAST-IV activity in the reverse-physiological reaction was determined at 25° C. with a total volume of 500 μL. The reverse-physiological assay above was used with varying PAP concentration (15.6, 31.3, 62.5, 125, 250, 500 μM). Measurement of initial velocity was conducted over 10 seconds at 400 nm, and an extinction coefficient of 1064 was used to calculate p-nitrophenol concentration at pH 7.0. […]

NodST [4] = target: T1, NodST; settings: Lin et al. 1995; read-out: Ki, PAP inhibition of NodST; cited from earlier work
NodST [5] = target: T1, NodST; settings: read-out: Km of NodST for PAPS; preliminary study
Procedure: To ensure that our coupled assay provides a steady-state PAPS concentration that is much greater than the Km of NodST, the Km experiments above were conducted with varying concentrations of PAPS to verify PAPS saturation. […] A previously published study using a radioisotopic thin-layer chromatography method to determine kinetic values of NodST maintained 100 μM PAPS concentration for all assays. Given that AST-IV maintains a constant concentration of PAPS through recycling, it is disclosed that 20 μM PAPS reaction concentration is sufficient for saturation conditions to maintain steady-state.

[6] = aqueous solution at pH 8.0; cited from earlier work

T2 sequence (P17988 whole entry): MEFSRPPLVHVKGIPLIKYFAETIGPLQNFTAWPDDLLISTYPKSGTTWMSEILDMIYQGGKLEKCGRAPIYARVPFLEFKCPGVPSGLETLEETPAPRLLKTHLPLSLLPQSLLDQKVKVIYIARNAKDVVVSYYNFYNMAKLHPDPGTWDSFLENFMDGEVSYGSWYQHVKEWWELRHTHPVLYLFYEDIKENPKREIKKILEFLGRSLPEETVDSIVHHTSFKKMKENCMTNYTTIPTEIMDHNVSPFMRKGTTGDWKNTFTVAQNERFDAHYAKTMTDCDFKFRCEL

increase in acceptor specificity from LacNAc to the LacNAc dimer (NodST [1]; NodST, coupled assay): sixty-fold increase
Compound: CC(=O)N[C@H]1[C@H](O[C@H]2[C@@H](O)[C@@H](CO)O[C@@H](O[C@H]3[C@H](O)[C@@H](NC(C)=O)C(O)O[C@@H]3CO)[C@@H]2O)O[C@H](CO)[C@@H](O[C@@H]2O[C@H](CO)[C@H](O)[C@H](O)[C@H]2O)[C@@H]1O (stereo partly drawn) [LacNAc dimer, Galβ(1,4)GlcNAcβ(1,3) Galβ(1,4)GlcNAc]

Compound: CC(=O)N[C@H]1[C@H](O[C@H]2[C@H](O)[C@@H](NC(C)=O)[C@H](O[C@H]3[C@H](O)[C@@H](NC(C)=O)C(O)O[C@@H]3CO)O[C@@H]2CO)O[C@H](CO)[C@@H](O[C@@H]2O[C@H](CO)[C@@H](O[C@@H]3O[C@H](CO)[C@@H](O)[C@H](O)[C@H]3NC(C)=O)[C@H](O)[C@H]2NC(C)=O)[C@@H]1O (stereo partly drawn) [N,N',N",N'",N""-pentaacetylchito-pentaose]
Km (NodST [2]): 190 µM

kcat of acceptor with NodST (NodST [1]; apparent value, coupled assay, 20 μM PAPS, pH 7.0): 0.328 s⁻¹
acceptor specificity for NodST, ranking among substrates (NodST [1]; coupled assay, among N-acetyl chitoses, LacNAc and LacNAc dimer): best substrate
Compound: CC(=O)N[C@H]1[C@H](O[C@H]2[C@H](O)[C@@H](NC(C)=O)C(O)O[C@@H]2CO)O[C@H](CO)[C@@H](O[C@@H]2O[C@H](CO)[C@@H](O[C@@H]3O[C@H](CO)[C@@H](O)[C@H](O)[C@H]3NC(C)=O)[C@H](O)[C@H]2NC(C)=O)[C@@H]1O (stereo partly drawn) [N,N',N",N'"-tetraacetylchitotetraose]
Km (NodST [2]): 140 µM

kcat of acceptor with NodST, PAPS concentration study (NodST [1]; 20, 40 and 100 μM PAPS, all three within 10% variation, 3.0 mU NodST): ~23.6 s⁻¹
Compound: CC(=O)N[C@H]1[C@H](O[C@H]2[C@H](O)[C@@H](NC(C)=O)C(O)O[C@@H]2CO)O[C@H](CO)[C@@H](O[C@@H]2O[C@H](CO)[C@@H](O)[C@H](O)[C@H]2NC(C)=O)[C@@H]1O (stereo partly drawn) [N,N',N"-triacetylchitotriose]

Compound: Nc1ncnc2c1ncn2[C@@H]1O[C@H](COP(=O)(O)O)[C@@H](OP(=O)(O)O)[C@H]1O [PAP, adenosine 3',5'-diphosphate]
enzyme product inhibition of sulfotransferases [3]: low-micromolar levels
Ki ([3]; read-out: Ki, PAP inhibition of hydroxysteroid sulfotransferase): 14 µM
Vmax of βAST-IV as a function of PAP concentration (βAST-IV): 6.04 ± 0.24 µmol/min
Ki (NodST [4]): 0.1 µM

Km (NodST [5]): < 0.1 µM
Compound: Nc1ncnc2c1ncn2[C@@H]1O[C@H](COP(=O)(O)OS(=O)(=O)O)[C@@H](OP(=O)(O)O)[C@H]1O [PAPS, 3'-phosphoadenosine-5'-phosphosulfate]
half-life of PAPS in aqueous solution [6]: approximately 20 hours
